Measurements reported in patent US20040180959A1, “Gabapentin analogues for fibromy algia and concomitant disorders” (priority 2002, published 2004).

Tests used:
[1] = test system: CD-1 mice; assay: Tail Suspension Test (TST) in mice; assay type: in vivo; conditions: 2 hours after treatment
Procedure: The anxiolytic and antidepressant activity of (3S, 4S)-(1-Aminomethyl-3,4-dimethyl-cyclopentyl)-acetic acid (“Compound A”) was assessed using the Tail Suspension Test (TST) in mice, and in the Water-lick (Vogel) Conflict Test (WLC) in rats. The Vogel test is a recognized test procedure for assessing the potential anxiolytic utility. The TST procedure is a behavior despair paradigm used to assess potential antidepressant activity.
The method consisted of suspending mice by a piece of cellophane tape attached to the distal end of the tail for 6 minutes. Animals (CD-1 mice, weighing 22 to 27 g, from Charles River Labs) were tested. The test apparatus was the TST-2™ (ITEM-Labo, Le Kremmlin-Bicetre Cedex, France). Data were analyzed with analysis of variance (ANOVA) and Tukey's Multiple Range Test or Student's t-test.
(§1) Compound A was dissolved in water and tested orally as a solution from 0.3 to 100 mg/kg in rats and 3 to 300 mg/kg in mice. Dosages are expressed as the active moiety and were administered in a volume of 1 mL/kg for rats and 10 mL/kg for mice.
The profile of typical […] activity in the TST consists of […]. Compound A and pregabalin were tested concurrently (PO) 2 hours after treatment. Compound A was administered at doses ranging from 3 to 100 mg/kg and pregabalin was tested from 3-300 mg/kg and served as positive control (Table 1). Compound A dose dependently increases immobility with the MED observed at the 3 mg/kg dosage and maximal effects were seen following the 30 mg/kg dose.

[2] = test system: Wistar rats; assay: Water-lick (Vogel) Conflict Test in rats; assay type: in vivo; conditions: for Percent of Animals Tested With >20 Shock Episodes / Mean Shock Episodes (1 mA): pretreatment 120 minutes; for Mean Shock Episodes (1 mA): Mean ± SEM
Procedure: In each experiment, naive adult male Wistar rats between 170 to 200 g were randomly divided into groups (N=10-30/group) and deprived of water for 48 hours prior to testing. Food was available on Day 1 and removed 24 hours prior to test Day 2.
Apparatus: The modular operant test cage (Coulbourn Instruments) measures 10.25×12×12 in. The test chambers feature 3 modular bays on each side of the cage for a total of 6 bays. A module optical lickometer is mounted on one side of the chamber 5 cm above the grid floor. The lickometer is used to measure licking-drinking from a water bottle mounted outside the test chamber. A photo beam is piped via glass rods to the tip of the drink tube across a gap at the end of the tube. The animals tongue breaks the beam on each lick. The front and back of the test chamber is made of clear Plexiglas. The front door is covered to reduce distractions from inside the test room. The back of the test chamber is facing a wall, away from the flow of traffic within the testing room and remains uncovered to provide the opportunity for observations during testing. Shocks are delivered using a (Coulbourn) programmable universal shocker calibrated to deliver a 1 mA shock for 1 second through the drink tube.
Procedure: On Day 1, after a 24-hour water deprivation, experimental subjects were placed into the test chambers and allowed to drink unpunished. Drinking was limited to 500 responses or approximately 5 mL of water during a 10 minute session. Immediately following the unpunished drinking session, rats were returned to their home cages, deprived of water for an additional 24 hours and was food deprived. […] After the pretreatment period rats were placed into a test chamber and allowed to drink for 10 minutes. After every 10 licks, rats received a 1-second shock (1 mA) through the drink tube. Thus, a conflict or anxiety-producing situation exists. Rats are motivated to drink; however, they are inhibited by the shock. Anxiety is reflected by the low amounts of drinking. Standard anxiolytic drugs produce effects that allow rats to overcome this behavioral inhibition and drink despite the shock.
All data were analyzed using a Kruskal-Wallis one Way Analysis of Variance on Ranks and Mann-Whitney Rank Sum Tests.
Quantitative Analysis: A quantitative analysis represents the percentage of subjects within a treatment group that receives >20 shock episodes during a test session. This number provides a quantitative comparison regarding the distribution of the responses.
as §1

[3] = doses 3× and 10× the Vogel MED (10 and 30 mg/kg)
[4] = oral, 2 hour pretreatment, rats

## C[C@H]1CC(CN)(CC(=O)O)C[C@@H]1C [Compound A, (3S, 4S)-(1-Aminomethyl-3,4-dimethyl-cyclopentyl)-acetic acid]
[1]; 3 mg/kg PO
  Immobility, % Percent of control: 126.8 ± 7.0 %
  Power of Movement, % Percent of control: 70.7 ± 10.3%
[1]; 10 mg/kg PO
  Immobility, % Percent of control: 143.7 ± 11.0 %
  Power of Movement, % Percent of control: 60.8 ± 11.4%
[1]; 30 mg/kg PO
  Immobility, % Percent of control: 185.9 ± 7.0 %
  Power of Movement, % Percent of control: 46.4 ± 12.3 %
[1]; 100 mg/kg PO
  Immobility, % Percent of control: 182.4 ± 5.9 %
  Power of Movement, % Percent of control: 50.5 ± 18.3 %
[1]; PO
  Dose of maximal effects on immobility: 30 mg/kg
  MED for increasing immobility: 3 mg/kg
  Power of movement parameter (effect in words): decreased at the 30 and 100 mg/kg dosages
[2]; 0.3 mg/kg PO
  Percent of Animals Tested With >20 Shock Episodes: 20%
  Mean Shock Episodes (1 mA): 16.5 ± 8.7
[2]; 1 mg/kg PO
  Percent of Animals Tested With >20 Shock Episodes: 10%
  Mean Shock Episodes (1 mA): 11.7 ± 4.2
[2]; 3 mg/kg PO
  Percent of Animals Tested With >20 Shock Episodes: 17%
  Mean Shock Episodes (1 mA): 16.7 ± 4.3
[2]; 3 mg/kg, 1 hr post treatment
  Shock episodes (time-course): 38.8 ± 12.2
[2]; 3 mg/kg, 2 hr post treatment
  Shock episodes (time-course): 55.7 ± 12.7
[2]; 3 mg/kg, 4 hr post treatment
  Shock episodes (time-course): 38.4 ± 12.2
[2]; 3 mg/kg, 6 hr post treatment
  Shock episodes (time-course): 44.7 ± 13.3
[2]; 3 mg/kg, 8 hr post treatment
  Shock episodes (time-course): 7.7 ± 1.2
[2]; 10 mg/kg PO
  Percent of Animals Tested With >20 Shock Episodes: 43%
  Mean Shock Episodes (1 mA): 33.8 ± 6.2
[2]; 10 mg/kg, 30 min. post treatment
  Shock episodes (time-course): 14.1 ± 3.1
[2]; 10 mg/kg, 1 hr post treatment
  Shock episodes (time-course): 28.2 ± 7.6
[2]; 10 mg/kg, 2 hr post treatment
  Shock episodes (time-course): 29.6 ± 8.0
[2]; 10 mg/kg, 4 hr post treatment
  Shock episodes (time-course): 47.7 ± 11.7
[2]; 10 mg/kg, 6 hr post treatment
  Shock episodes (time-course): 38.4 ± 13.2
[2]; 30 mg/kg PO
  Percent of Animals Tested With >20 Shock Episodes: 67%
  Mean Shock Episodes (1 mA): 46.3 ± 7.6
[2]; 30 mg/kg, 30 min. post treatment
  Shock episodes (time-course): 35.8 ± 12.6
[2]; 30 mg/kg, 1 hr post treatment
  Shock episodes (time-course): 93.3 ± 12.1
[2]; 30 mg/kg, 2 hr post treatment
  Shock episodes (time-course): 88.4 ± 7.4
[2]; 30 mg/kg, 4 hr post treatment
  Shock episodes (time-course): 73.5 ± 12.2
[2]; 30 mg/kg, 6 hr post treatment
  Shock episodes (time-course): 97.4 ± 11.1
[2]; 100 mg/kg PO
  Percent of Animals Tested With >20 Shock Episodes: 90%
  Mean Shock Episodes (1 mA): 52.8 ± 10.9
[2]; 10 and 30 mg/kg respectively
  Time of peak activity after treatment: 4 to 6 h
[2]; MED dose 3 mg/kg
  Activity maintained through: 6 h
  Onset of activity after treatment: 2 h
  Time of peak activity: 2 h
[2]; [3]
  Activity maintained through: 6 h
  Onset of activity after treatment: 1 h
[2]; [4]
  Dose of maximal anti-conflict effects: 100 mg/kg
  MED for anti-conflict activity: 3 mg/kg
